Measurements published in PubChem BioAssay AID1918953 (Molecular Pharmacology Branch, DTP, NCI, 2023).

Tested on: MDA-MB-231 complex spheroid viability
Assay: Anticancer human tumor MDA-MB-231/ATCC cell line growth inhibition;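 further: drug exposure lasted 7 days starting on day 3 of spheroid growth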
Conditions: for IC50: curve of first compound; for viability, T/C: stronger effect = lower value; active means viability on the fitted dose curve at most 10% of control; inactive means the rest
How it was run: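 Multicellular complex spheroids of tumor cells with human endothelial cells (HUVEC) and mesenchymal stem cells; the LSD1 inhibitor iadademstat was combined with standard-of-care or investigational agents. Top concentration at or near clinical Cmax, half-log dilutions; final DMSO ≤0.25%.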

[1] = second compound 0.1 µM, first compound 0.0316 µM
[2] = second compound 0.1 µM, first compound 0.1 µM
[3] = second compound 0.1 µM, first compound 0.316 µM
[4] = second compound 0.1 µM, first compound 1 µM
[5] = second compound 0.1 µM, first compound 3.16 µM
[6] = second compound 0.1 µM, first compound 10 µM
[7] = second compound 0.316 µM, first compound 0.0316 µM
[8] = second compound 0.316 µM, first compound 0.1 µM
[9] = second compound 0.316 µM, first compound 0.316 µM
[10] = second compound 0.316 µM, first compound 1 µM
[11] = second compound 0.316 µM, first compound 3.16 µM
[12] = second compound 0.316 µM, first compound 10 µM
[13] = second compound 1 µM, first compound 0.0316 µM
[14] = second compound 1 µM, first compound 0.1 µM
[15] = second compound 1 µM, first compound 0.316 µM
[16] = second compound 1 µM, first compound 1 µM
[17] = second compound 1 µM, first compound 3.16 µM
[18] = second compound 1 µM, first compound 10 µM
[19] = second compound 3.16 µM, first compound 0.0316 µM
[20] = second compound 3.16 µM, first compound 0.1 µM
[21] = second compound 3.16 µM, first compound 0.316 µM
[22] = second compound 3.16 µM, first compound 1 µM
[23] = second compound 3.16 µM, first compound 3.16 µM
[24] = second compound 3.16 µM, first compound 10 µM
[25] = second compound 10 µM, first compound 0.0316 µM
[26] = second compound 10 µM, first compound 0.1 µM
[27] = second compound 10 µM, first compound 0.316 µM
[28] = second compound 10 µM, first compound 1 µM
[29] = second compound 10 µM, first compound 3.16 µM
[30] = second compound 10 µM, first compound 10 µM
[31] = second compound 0.1 µM, first compound 0.00949 µM
[32] = second compound 0.1 µM, first compound 0.03 µM
[33] = second compound 0.1 µM, first compound 0.0949 µM
[34] = second compound 0.1 µM, first compound 0.3 µM
[35] = second compound 0.316 µM, first compound 0.00949 µM
[36] = second compound 0.316 µM, first compound 0.03 µM
[37] = second compound 0.316 µM, first compound 0.0949 µM
[38] = second compound 0.316 µM, first compound 0.3 µM
[39] = second compound 1 µM, first compound 0.00949 µM
[40] = second compound 1 µM, first compound 0.03 µM
[41] = second compound 1 µM, first compound 0.0949 µM
[42] = second compound 1 µM, first compound 0.3 µM
[43] = second compound 3.16 µM, first compound 0.00949 µM
[44] = second compound 3.16 µM, first compound 0.03 µM
[45] = second compound 3.16 µM, first compound 0.0949 µM
[46] = second compound 3.16 µM, first compound 0.3 µM
[47] = second compound 10 µM, first compound 0.00949 µM
[48] = second compound 10 µM, first compound 0.03 µM
[49] = second compound 10 µM, first compound 0.0949 µM
[50] = second compound 10 µM, first compound 0.3 µM

CC1(C)CCC(CN2CCN(c3ccc(C(=O)NS(=O)(=O)c4ccc(NCC5CCOCC5)c([N+](=O)[O-])c4)c(Oc4cnc5[nH]ccc5c4)c3)CC2)=C(c2ccc(Cl)cc2)C1 + NC1CCC(NC2CC2c2ccccc2)CC1
735 nM: IC50 (second compound 10 µM)
inactive: viability, T/C [1] 100% | viability, T/C [2] 98.6% | viability, T/C [3] 100% | viability, T/C [4] 102% | viability, T/C [5] 92.6% | viability, T/C [6] 27.8% | viability, T/C [7] 102% | viability, T/C [8] 103% | viability, T/C [9] 97.3% | viability, T/C [10] 97.3% | viability, T/C [11] 86% | viability, T/C [12] 27.6% | viability, T/C [13] 98.9% | viability, T/C [14] 95.6% | viability, T/C [15] 99.4% | viability, T/C [16] 95.3% | viability, T/C [17] 72.8% | viability, T/C [18] 23.5% | viability, T/C [19] 81.1% | viability, T/C [20] 77.3% | viability, T/C [21] 74.8% | viability, T/C [22] 75% | viability, T/C [23] 56.2% | viability, T/C [24] 19.9% | viability, T/C [25] 48.6% | viability, T/C [26] 60.2% | viability, T/C [27] 53.8% | viability, T/C [28] 47.7% | viability, T/C [29] 36.2% | viability, T/C [30] 18.6%
3860 nM: IC50 (second compound 3.16 µM)
6760 nM: IC50 (second compound 0.1 µM)
5380 nM: IC50 (second compound 1 µM)
6450 nM: IC50 (second compound 0.316 µM)

CC1COCCN1c1cc(C2(S(C)(=N)=O)CC2)nc(-c2ccnc3[nH]ccc23)n1 (stereo not given) + NC1CCC(NC2CC2c2ccccc2)CC1
1460 nM: IC50 (second compound 0.316 µM)
1010 nM: IC50 (second compound 10 µM)
inactive: viability, T/C [1] 103% | viability, T/C [2] 99.2% | viability, T/C [3] 82.5% | viability, T/C [4] 51.1% | viability, T/C [5] 38.1% | viability, T/C [6] 29.4% | viability, T/C [7] 111% | viability, T/C [8] 109% | viability, T/C [9] 81.6% | viability, T/C [10] 59.2% | viability, T/C [11] 34.9% | viability, T/C [12] 29.3% | viability, T/C [13] 109% | viability, T/C [14] 100% | viability, T/C [15] 79.5% | viability, T/C [16] 56% | viability, T/C [17] 40% | viability, T/C [18] 30.3% | viability, T/C [19] 95% | viability, T/C [20] 87% | viability, T/C [21] 69.7% | viability, T/C [22] 53% | viability, T/C [23] 37.9% | viability, T/C [24] 33.3% | viability, T/C [25] 72.4% | viability, T/C [26] 68.2% | viability, T/C [27] 59.5% | viability, T/C [28] 48.1% | viability, T/C [29] 42.4% | viability, T/C [30] 32.3%
1530 nM: IC50 (second compound 1 µM)
1180 nM: IC50 (second compound 0.1 µM) | IC50 (second compound 3.16 µM)

CCN(c1cc(-c2ccc(CN3CCOCC3)cc2)cc(C(=O)NCc2c(C)cc(C)[nH]c2=O)c1C)C1CCOCC1 + NC1CCC(NC2CC2c2ccccc2)CC1
> 3000 nM: IC50 (second compound 0.1 µM) | IC50 (second compound 0.316 µM) | IC50 (second compound 1 µM) | IC50 (second compound 3.16 µM)
587 nM: IC50 (second compound 10 µM)
inactive: viability, T/C [31] 104% | viability, T/C [32] 93.3% | viability, T/C [33] 80.4% | viability, T/C [34] 74.6% | viability, T/C (second compound 0.1 µM, first compound 0.949 µM) 70.1% | viability, T/C (second compound 0.1 µM, first compound 3 µM) 59.8% | viability, T/C [35] 98.4% | viability, T/C [36] 94% | viability, T/C [37] 81.1% | viability, T/C [38] 73.5% | viability, T/C (second compound 0.316 µM, first compound 0.949 µM) 68.4% | viability, T/C (second compound 0.316 µM, first compound 3 µM) 59.5% | viability, T/C [39] 95.2% | viability, T/C [40] 91.1% | viability, T/C [41] 75.1% | viability, T/C [42] 75.8% | viability, T/C (second compound 1 µM, first compound 0.949 µM) 64% | viability, T/C (second compound 1 µM, first compound 3 µM) 58.4% | viability, T/C [43] 78% | viability, T/C [44] 73.2% | viability, T/C [45] 65.4% | viability, T/C [46] 66% | viability, T/C (second compound 3.16 µM, first compound 0.949 µM) 60% | viability, T/C (second compound 3.16 µM, first compound 3 µM) 55.2% | viability, T/C [47] 55.9% | viability, T/C [48] 61.5% | viability, T/C [49] 54.8% | viability, T/C [50] 48.6% | viability, T/C (second compound 10 µM, first compound 0.949 µM) 50.5% | viability, T/C (second compound 10 µM, first compound 3 µM) 43.5%

Nc1ncn(C2CC(O)C(CO)S2)c(=O)n1 (stereo not given) + NC1CCC(NC2CC2c2ccccc2)CC1
21.2 nM: IC50 (second compound 0.316 µM)
inactive: viability, T/C (second compound 0.1 µM, first compound 0.000949 µM) 94.4% | viability, T/C (second compound 0.1 µM, first compound 0.003 µM) 78.2% | viability, T/C [31] 63% | viability, T/C [32] 44.3% | viability, T/C [33] 24.2% | viability, T/C [34] 12.3% | viability, T/C (second compound 0.316 µM, first compound 0.000949 µM) 93.2% | viability, T/C (second compound 0.316 µM, first compound 0.003 µM) 77.5% | viability, T/C [35] 65.1% | viability, T/C [36] 46.4% | viability, T/C [37] 21.9% | viability, T/C [38] 12% | viability, T/C (second compound 1 µM, first compound 0.000949 µM) 95.2% | viability, T/C (second compound 1 µM, first compound 0.003 µM) 77.8% | viability, T/C [39] 58.5% | viability, T/C [40] 37.7% | viability, T/C [41] 19.5% | viability, T/C [42] 11.2% | viability, T/C (second compound 3.16 µM, first compound 0.000949 µM) 77.2% | viability, T/C (second compound 3.16 µM, first compound 0.003 µM) 62.6% | viability, T/C [43] 49.9% | viability, T/C [44] 32% | viability, T/C [45] 17.9% | viability, T/C [46] 12% | viability, T/C (second compound 10 µM, first compound 0.000949 µM) 61.2% | viability, T/C (second compound 10 µM, first compound 0.003 µM) 50.1% | viability, T/C [47] 37.6% | viability, T/C [48] 23.8% | viability, T/C [49] 15.9% | viability, T/C [50] 12.6%
8.38 nM: IC50 (second compound 3.16 µM)
19.9 nM: IC50 (second compound 0.1 µM)
14.7 nM: IC50 (second compound 1 µM)
3.2 nM: IC50 (second compound 10 µM)
